Where “and” joins values, the source holds several entries; their conditions need not be identical. Equal entries are not always repeated.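 Five concentrations, 48 hours, 96-well plates. GI50: concentration for 50% inhibition of growth. TGI: total growth inhibition.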
Tests used:
Assay in all cases: NCI-60 cell line screen, 48 h
SNB-78 CNS = system: SNB-78 CNS
M14 melanoma = system: M14 melanoma
SW-620 colon = system: SW-620 colon
UO-31 renal = system: UO-31 renal
HL-60(TB) leukemia = system: HL-60(TB) leukemia
SNB-75 CNS = system: SNB-75 CNS
KM20L2 colon = system: KM20L2 colon
KM12 colon = system: KM12 colon
U251 CNS = system: U251 CNS
T-47D breast = system: T-47D breast

Row | Structure (SMILES) | TGI (SNB-78 CNS) [µM] | TGI (M14 melanoma) | TGI (SW-620 colon) [µM] | TGI (UO-31 renal) | TGI (HL-60(TB) leukemia) | TGI (SNB-75 CNS) [µM] | TGI (KM20L2 colon) [µM] | TGI (KM12 colon) [µM] | TGI (U251 CNS) | GI50 (M14 melanoma) | GI50 (UO-31 renal) | GI50 (U251 CNS) | GI50 (SNB-78 CNS) [µM] | GI50 (SW-620 colon) [µM] | GI50 (SNB-75 CNS) [µM] | GI50 (KM20L2 colon) [µM] | GI50 (KM12 colon) [µM] | GI50 (T-47D breast) [µM] | TGI (T-47D breast) [µM] | GI50 (HL-60(TB) leukemia)
1 | O=C1C=C(c2ccccc2)NC1(c1ccccc1)c1cc(-c2ccccc2)[nH]c1-c1ccccc1 (stereo unspecified) | > 100 | > 100 µM | > 100 | > 100 µM | > 100 µM | > 100 | > 100 | > 100 | > 100 µM |  |  |  |  |  |  |  |  |  |  | 
2 | COc1ccc(-c2cc(-c3ccco3)c(C#N)c(=O)n2C2OC(COC(C)=O)C(OC(C)=O)C(OC(C)=O)C2OC(C)=O)cc1 (stereo unspecified) | > 100 | > 100 µM and 52.5 µM | > 100 | > 100 µM and 51.7 µM |  | > 100 | > 100 | > 100 | > 100 µM and 34.7 µM | > 100 µM and 23.2 µM | 40.1 µM and 16.5 µM | > 100 µM and 16.1 µM |  |  |  |  |  |  |  | 
3 | NNC(=O)C(=O)N/N=C1\CCCC1C(=O)CCC(=O)Nc1cccc(Cl)c1 (stereo unspecified) | > 100 | > 100 µM | > 100 | > 100 µM | > 100 µM | > 100 | > 100 | > 100 | > 100 µM |  |  |  |  |  |  |  |  |  |  | 
4 | CCCOC(=O)C1C(c2ccc(OC)cc2)NC(c2ccc(OC)cc2)C(C(=O)OCCC)S1(=O)=O (stereo unspecified) | > 100 | > 100 µM | > 100 | > 100 µM | > 100 µM | > 100 | > 100 | > 100 | > 100 µM | > 100 µM | > 100 µM | > 100 µM | > 100 | > 100 | > 100 | > 100 | > 100 |  |  | 
5 | O=C1CC2=CCCC2O1 (stereo unspecified) | > 100 | > 100 µM | > 100 | > 100 µM | > 100 µM | > 100 |  | > 100 | > 100 µM |  |  |  |  |  |  |  |  |  |  | 
6 | COC(=O)N1C=CC2=C(C)C3Nc4ccccc4C3C(C)=C2C1 (stereo unspecified) | 3.66 | 8.29 µM | 21.9 | 3.88 µM | 11.9 µM | 9.54 | > 100 |  | > 100 µM |  |  |  |  |  |  |  |  |  |  | 
7 | NC(=O)c1c(-c2ccccc2)c(-c2ccccc2)cc2c(=O)c3ccccc3[nH]c12 | 54.1 | > 100 µM | > 100 | 80.2 µM |  | 41.7 | 72.9 | 78.6 | > 100 µM |  |  |  |  |  |  |  |  |  |  | 
8 | CCOC(=O)C(c1ccsc1)P(=O)(OCC)OCC (stereo unspecified) | 76.9 | 26.3 µM | 30.8 | 28.4 µM |  | 43.5 | 29 | 28.4 | 45.4 µM |  |  |  |  |  |  |  |  |  |  | 
9 | O=C1c2c[n+](Cc3ccccc3)ccc2-c2nc3ccccc3c3ccnc1c23 |  | 0.969 µM | 3.71 | 17 µM | 1.93 µM | 3.71 |  | 4.28 | 1.64 µM | 0.208 µM | 0.756 µM | 0.541 µM |  | 0.45 | 0.804 |  | 1.06 | 0.648 | 1.7 | 0.72 µM
10 | O=C(NCCc1nccs1)c1cnc2c(S)cccc2c1 |  | 38.6 µM | 28.7 | 16 µM | 70 µM | 17.6 |  | 17.8 | 16.7 µM | 3.5 µM | 3.26 µM | 2.53 µM |  | 3.62 | 2.78 |  | 2.88 | 2.37 | 62.6 | 10.7 µM
11 | COc1cccc(C2=C(c3cn(C)c4c(C)cccc34)C(=O)NC2=O)c1 |  | > 25 µM | > 25 | > 25 µM | > 25 µM | > 25 |  | > 25 | > 25 µM | > 25 µM | > 20.2 µM | 14.9 µM |  | > 25 | 0.909 |  | > 21 | > 20.2 | > 25 | > 25 µM
12 | O=S(=O)([O-])c1ccc(C=Nc2ccccc2)c([O-])c1.O=S(=O)([O-])c1ccc(C=Nc2ccccc2)c([O-])c1.[Co+2] | > 100 | > 100 µM | > 100 | > 100 µM | > 100 µM | > 100 | > 100 | > 100 |  | 6.5 µM | 21 µM |  | 51.7 | 6.96 | > 100 | 1.76 | 65.4 |  |  | 2.7 µM
13 | Nc1ncnc2c1ncn2C1OC(F)(COS(N)(=O)=O)C(O)C1O (stereo unspecified) |  | > 100 µM | > 100 | > 100 µM | > 100 µM | > 100 |  | > 100 | > 100 µM | > 100 µM | > 100 µM | > 100 µM |  | > 100 | > 100 |  | > 100 | > 100 | > 100 | > 100 µM
14 | O=[N+]([O-])C(=C1c2ccccc2-c2ccccc21)[N+](=O)[O-] | > 100 | > 100 µM | > 100 | > 100 µM | 98.9 µM |  | > 100 | > 100 | > 100 µM |  |  |  |  |  |  |  |  |  |  | 
15 | Nc1ncnc2c1ncn2C1(CO)OC(CO)C(O)C1O (stereo unspecified) | > 100 | > 100 µM | > 100 |  | > 100 µM | > 100 | > 100 | > 100 | > 100 µM |  |  |  |  |  |  |  |  |  |  | 
16 | CCOC(=O)c1c(C)n(Cc2ccc(Cl)cc2Cl)c2c1cc(O)c1[nH]c(Cc3ccccc3)nc12 |  | 37.5 µM | 6.02 | 16.6 µM | 5.38 µM | 30.8 |  | 4.62 | 12.1 µM | 11 µM | 3.75 µM | 3.41 µM |  | 2.21 | 5.89 |  | 2.05 | 5.27 | 25.9 | 2.27 µM
17 | Cc1nc2sc(C(=O)Nc3cccc4c3OCCO4)c(N)c2cc1C(C)O (stereo unspecified) |  | > 100 µM | > 100 | > 100 µM | 13 µM | > 100 |  | > 100 | > 100 µM | 3.01 µM | 7.3 µM | 4.66 µM |  | 3.34 | 1.81 |  | 3.85 | 5.33 | > 100 | 2.99 µM
18 | N#C/C(=C\c1ccccn1)c1nc2ccccc2o1 |  | > 100 µM | 37.1 | 59.7 µM | 76.2 µM | > 100 |  | > 100 | 49.8 µM | 30.7 µM | 18.8 µM | 21.5 µM |  | 17.5 | 21.8 |  | 26.8 | 14.5 | 34.3 | 15.3 µM
19 | CC(C)C[C@H](NC(=O)[C@@H](N)Cc1cccc2ccccc12)B(O)O |  |  |  |  | 50 µM and > 100 µM |  |  |  |  | 0.206 µM and 0.0374 µM | 0.739 µM | 0.392 µM |  | 0.231 | 1.07 |  | 0.546 | 0.432 |  | 0.0789 µM and 0.0291 µM
20 | Cc1nc2ccccc2c(/C=C/c2ccc(F)cc2)c1C(=O)/C=C/c1ccccc1 |  | 9.26 µM | > 100 | 2.67 µM | 6.93 µM | > 100 |  | 6.82 | 3.18 µM | 2.87 µM | 1.29 µM | 1.74 µM |  | 2.9 | 8.15 |  | 2.38 | 1.55 | 9.87 | 2.55 µM
21 | O=c1oc2cc(O)ccc2cc1-c1nc2ccccc2o1 |  | > 100 µM | > 100 | 80.2 µM | 70.6 µM | > 100 |  | 93 | 93.5 µM |  |  |  |  |  |  |  |  |  | 31.2 | 
22 | Nc1ncnc2occ(-c3ccc(NC(=O)Nc4cccc(C(F)(F)F)c4)cc3)c12 |  | 9.19 µM | 20.2 | 11 µM | 14.2 µM | 9.69 |  | 4.51 | 16.5 µM | 3.2 µM | 2.88 µM | 5.27 µM |  | 6.77 | 3.77 |  | 0.123 | 5.22 | 15 | 5.1 µM
23 | COc1cccc2c1C(=O)c1c(O)c3c(c(O)c1C2=O)C[C@@](O)(C(=O)CO)C[C@@H]3OC1CC2C(OCN2CN2COC3C(C)OC(O[C@H]4C[C@](O)(C(=O)CO)Cc5c(O)c6c(c(O)c54)C(=O)c4c(OC)cccc4C6=O)CC32)C(C)O1 (stereo partly specified) |  | 0.0405 µM | > 1 | 0.0283 µM |  | 0.0149 |  | 0.0609 | 0.0979 µM | 0.0067 µM | 0.00304 µM | 0.00291 µM |  | 0.00577 | 0.00419 |  | 0.0139 | 0.00185 | 0.0174 | 0.000329 µM
24 | O=[N+]([O-])c1cc2c(ccc3ccccc32)o1 |  | 0.472 µM | 5.91 | 2.82 µM | 4.52 µM | 2.27 |  | 4.02 | 5.62 µM | 0.173 µM | 0.403 µM | 0.835 µM |  | 0.404 | 0.497 |  | 0.973 | 1.57 | 31.9 | 0.331 µM
25 | O=NN(CC(=O)NNc1ccccc1)CC(=O)NNc1ccccc1 |  | > 100 µM | > 100 | > 100 µM | > 100 µM | > 100 |  | > 100 | > 100 µM | 3.8 µM | 2.22 µM | > 100 µM |  | 4.21 | > 45.4 |  | 0.893 | 6.1 | > 100 | 0.534 µM
26 | Cc1ncc2c(n1)CCC1=C2OS(=O)(=O)CC1N(C)C (stereo unspecified) |  | > 100 µM | > 100 | > 100 µM | > 100 µM | > 100 |  | > 100 | > 100 µM |  |  |  |  |  |  |  |  |  | > 100 | 
